Measured values from US9308270B2, “Pharmaceutical composition on the basis of nanomicelles containing epigallocatechin gallate and a method of administration thereof to treat atopic dermatitis, Crohn's disease, adenomyosis, and hyperplastic diseases of the prostate gland” (NORDIC LABS LIMITED, priority 2011, dated 2016).

Assays:
[1] = cited from earlier work
[2] = tested on: rats; test: Toxicity observed in the rat pharmacokinetic study; format: in vivo; conditions: peroral, maximum dose 2,500 mg/kg (G-1), without formulation
Description: At fixed time intervals (10 and 30 minutes, 1, 1.5, 2, 3, 8, and 24 hours), blood samples were drawn from the animals and, following centrifuging, plasma was drawn from the samples for analysis, refrigerated, and kept at −80° C. until it was needed for studies.

[3] = Dependence of EGCG concentration in rat plasma on dose; format: in vivo; conditions: different doses, FIG. 2
[4] = Pharmacokinetic study of EGCG in rat plasma after peroral administration; format: in vivo; conditions: for AUC0-24 hr / Cmax: rat plasma
Description: Experiments were conducted on laboratory rats of Sprague-Dawley breed weighing between 250 g and 350 g. All studies on animals were conducted in accordance with “Guidelines for Care and Use of Experimental Animals,” […] At fixed time intervals (10 and 30 minutes, 1, 1.5, 2, 3, 8, and 24 hours), blood samples were drawn from the animals and, following centrifuging, plasma was drawn from the samples for analysis, refrigerated, and kept at −80° C. until it was needed for studies. For analytical studies to be conducted, the plasma samples were unfrozen, centrifuged, and divided into aliquots of 0.1 ml each. The samples were extracted three times in 2 ml of ethyl acetate for 5 minutes at constant shaking. Following extraction, the samples were centrifuged at 1,000 r.p.m. for 10 minutes. The supernatant was separated and placed in a glass tube.

Q: What does the source list for epigallocatechin-3-gallate [EGCG]?
A: EGCG concentration in human plasma ([1]; maximum possible tea drinking during the day): 326 ng/mL; maximum concentration of EGCG in plasma ([1]; patients taking preparations containing green tea catechins): ≤ 1 μm; toxicity [2]: toxic to the animals; dependence of EGCG concentration in rat plasma on dose [3]: nonlinear pattern and reached a plateau at the 500 mg/kg dose; AUC0-24 hr ([4]; 500 mg/kg): 49.23 ± 4.95 µg·h/mL; Cmax ([4]; 500 mg/kg): 10650 ± 1140 ng/mL; AUC0-24 hr ([4]; 2.5 g/kg (G-1)): 179.2 ± 54.33 µg·h/mL; Cmax ([4]; 2.5 g/kg (G-1)): 58600 ± 22400 ng/mL; EGCG concentration level in plasma ([4]; rat, 100 mg/kg (G-5)): below LOQ
